Source: US20130216533A1, “BIOLOGICAL MARKERS FOR IDENTIFYING PATIENTS FOR TREATMENT WITH VEGF ANTAGONISTS” (Genentech, Inc., priority 2012, published 2013)

What was measured:
[1] = tested on: metastatic colorectal carcinoma (CRC); assay: NO16966 first-line metastatic CRC trial, PFS and OS stratified by 22-gene VDV signature; format: in vivo, human
Procedure: Sections from archival tumor samples from patients enrolled in the XELOX treatment arms of NO 16966 were evaluated by a pathologist and high tumor content area macro-dissected for subsequent RNA isolation using the FFPE RNA isolation kit (Roche; 7-10 sections per patient). RNA levels were assessed after cDNA synthesis following standard techniques, with the qPCR protocol on the Fluidigm Biomark platform according to the manufacturer's protocol.
Quantitative histological data from various animal experiments were plotted using Microsoft Excel software. Student's t test was applied to compare data sets of interest and differences with p values <0.05 were considered significant. 103 biopsies out of 1017 patients from the XELOX (capecitabine and oxaliplatin)-containing arm in the NO16966 trial were analyzed for the gene expression of VDV genes. qRT-PCR values were normalized by the housekeeping genes and relative to a universal reference sample to derive delta-delta Ct values. Subsequently, the delta-delta Ct value of each of the 22 VDV genes was mean centered and variance scaled to a Z-score.
For each sample i for which all of the VDV genes were analyzed, a VDV signature score (VDVi) was calculated. The VDVi represents a weighted average of z-scores across the analyzed VDV genes and is given by the algorithm:
wherein Zg,i is the standardized z-score of the qRT-PCR value for gene g of sample i and n, in this instance, is 22. The VDVi value provides quantitative information regarding the extent to which the expression of a particular set of genes is collectively overexpressed or underexpressed relative to a centered mean.
To compare the clinical outcomes (PFS and OS) between marker and/or treatment subgroups, log-rank tests and Cox regression were used, with median time calculated by the Kaplan-Meier analysis. All statistical tests were two-sided.
To test if VDV gene expression could correlate with clinical outcomes, we analyzed VDV gene expression levels in available pre-treatment archival tumor tissue from 103 patients (biomarker evaluable subpopulation) that were enrolled in the XELOX-containing arms. Due to the limited quality and amount of RNA from these clinical samples, gene expression was analyzed in a previously designed and validated “angiogenesis” Fluidigm qRT-PCR chip (FIG. 8B) that included 4 different housekeeping genes (for gene expression normalization), VEGF (as a control), and 22 representative proximal and distal VDV genes comprising: (i) pan-vascular markers such as CD31, CD34, and VE-CADH as indicators of MVD; (ii) key VEGF pathway components and proxVDV genes, including VEGFR-1, VEGFR-2, VEGFR-3, EPHRINB2, NRPs, ESM1, NID2, COL4a2, and LAMA4a; and (iii) additional VDV genes that are components of endothelial signaling pathways and potential modulators of VDV biology, including DLL-4, NOTCH1, ALK1, and EGFL7 (see FIG. 9A for validation of this compacted 22 VDV gene signature).
In these patients, the addition of bevacizumab to chemotherapy provided a statistically significant PFS (HR, 0.59; 95% CI, 0.37 to 0.93; p=0.024) and OS benefit (HR, 0.45; 95% CI, 0.23 to 0.85; p=0.015). […] We then tested the correlation between clinical outcomes and “high” or “low” pre-treatment gene expression. […] In contrast, in “VDV high” patients (FIG. 8D, solid lines), the addition of bevacizumab to chemotherapy vs chemotherapy alone provided a marked and significant PFS(HR, 0.36; 95% CI, 0.17 to 0.77; p=0.0079) and OS (HR, 0.31; 95% CI, 0.11 to 0.93; p=0.036) benefit. […] Thus, in this relatively small 103-patient sample set, the higher expression of a collective VDV gene subset correlates specifically with the improved clinical outcome provided by bevacizumab addition to chemotherapy, and has a predictive effect with respect to PFS.

[2] = tested on: VDV signature genes in Human Inflammatory Breast Cancer; conditions: 19 inflammatory breast cancer patients; one dose as single agent; 21 days post-treatment; published micro-array data; cited from earlier work
[3] = tested on: metastatic colorectal carcinoma (CRC); conditions: cited from earlier work
[4] = addition to oxaliplatin-based chemotherapy, Saltz et al. 2008

## bevacizumab: recombinant humanized anti-VEGF monoclonal antibody generated according to Presta et al. (1997)
[1]; 103 biomarker evaluable patients, addition to chemotherapy (XELOX) vs chemotherapy, 95% CI 0.37 to 0.93, p=0.024
  PFS HR: 0.59
[1]; 103 biomarker evaluable patients, addition to chemotherapy (XELOX), 95% CI 0.23 to 0.85, p=0.015
  OS HR: 0.45
[1]; "VDV high" patients, 95% CI 0.11 to 0.93, p=0.036
  OS HR: 0.31
[1]; "VDV high" patients, addition to chemotherapy vs chemotherapy alone, 95% CI 0.17 to 0.77, p=0.0079
  PFS HR: 0.36
[1]; "VDV low" patients, 95% CI 0.25 to 1.33, p=0.2
  OS HR: 0.58
[1]; "VDV low" patients, combination with chemotherapy vs chemotherapy alone, 95% CI 0.47 to 1.62, p=0.67
  PFS HR: 0.88
[2]
  VDV transcripts post-treatment vs pre-treatment biopsies: clear down regulation of VDV transcripts
[3]; [4]
  OS differences (secondary endpoint), whole NO16966 study: did not reach statistical significance
  PFS (primary endpoint), whole NO16966 study: significantly improved
[3]; in combination with chemotherapy, Hurwitz et al. 2004
  PFS and OS in metastatic CRC: increase progression free survival (PFS) and overall survival (OS)
